What all share (format): cell-based, human
The subject of experiment [1] is cancer cell lines. As to the kind of experiment: Cell viability analysis (WST-1) on cancer cell lines. The note with it: drug 10 μM, 72 hours, WST-1; Table 3.
For experiment [2], the system named is HI650 (Lung Adenocarcinoma). Kind of experiment: Cell viability analysis, lung cancer HI650. The note with it: Homo sapiens, NCI-H1650, 72 h.
Experiment [3] relates to A549 (Lung Adenocarcinoma). Kind of experiment: Cell viability analysis, lung cancer A549. The note with it: Homo sapiens, A549, 72 h.
Experiment [4] concerns AGS (Gastric Adenocarcinoma). Kind of experiment: Cell viability analysis, gastric cancer AGS. The note with it: Homo sapiens, 72 h.
The subject of experiment [5] is MKN-45 (Gastric Adenocarcinoma). Kind of experiment: Cell viability analysis, gastric cancer MKN-45. Particulars: Homo sapiens, MKN-45, 72 h.
The subject of experiment [6] is HepG2 (Hepatocellular Carcinoma). Kind of experiment: Cell viability analysis, hepatic cancer HepG2. Particulars: Homo sapiens, HepG2, 72 h.
For experiment [7], the system named is LoVo (Colorectal Adenocarcinoma). Kind of experiment: Cell viability analysis, colon cancer LoVo. The note with it: Homo sapiens, LoVo, 72 h, read-out: cell viability (survival rate), LoVo, drug 10 μM, 72 hours, WST-1, OD450 nm. In general terms: Formazan colour is commonly taken as a measure of viable cells.
The subject of experiment [8] is A375 (Amelanotic Melanoma). Kind of experiment: Cell viability analysis, skin cancer A375. The note with it: Homo sapiens, A-375, 72 h.
Experiment [9] has as its system HeLa (Cervix Adenocarcinoma). Kind of experiment: Cell viability analysis, cervical cancer HeLa. Particulars: Homo sapiens, HeLa, 72 h.
Experiment [10] deals with PC3 (p53−) (Prostate Adenocarcinoma). As to the kind of experiment: Cell viability analysis, prostate cancer PC3. The note with it: Homo sapiens, 72 h.
For experiment [11], the system named is TSGH-8301 (Urinary Bladder Carcinoma). Kind of experiment: Cell viability analysis, bladder cancer TSGH-8301. Particulars: Homo sapiens, 72 h.
Experiment [12] relates to MCF7 (Mammary Gland, Adenocarcinoma). Kind of experiment: Cell viability analysis, breast cancer MCF7. The note with it: Homo sapiens, MCF7, 72 h.
Experiment [13] has as its system HL-60 (Acute Promyelocytic Leukemia). Kind of experiment: Cell viability analysis, leukemia HL-60. Particulars: Homo sapiens, HL-60, 72 h.
Setting [14] is: read-out: cell viability (survival rate), H1650, drug 10 μM, 72 hours, WST-1, OD450 nm.
Where [15] appears, read: read-out: cell viability (survival rate), A549, drug 10 μM, 72 hours, WST-1, OD450 nm.
[16] abbreviates: read-out: cell viability (survival rate), AGS, drug 10 μM, 72 hours, WST-1, OD450 nm.
[17] abbreviates: read-out: cell viability (survival rate), MKN-45, drug 10 μM, 72 hours, WST-1, OD450 nm.
[18] abbreviates: read-out: cell viability (survival rate), HepG2, drug 10 μM, 72 hours, WST-1, OD450 nm.
Setting [19] is: read-out: cell viability (survival rate), A375, drug 10 μM, 72 hours, WST-1, OD450 nm.
Where [20] appears, read: read-out: cell viability (survival rate), HeLa, drug 10 μM, 72 hours, WST-1, OD450 nm.
The mark [21] stands for this setting: read-out: cell viability (survival rate), PC3, drug 10 μM, 72 hours, WST-1, OD450 nm.
The mark [22] stands for this setting: read-out: cell viability (survival rate), TSGH, drug 10 μM, 72 hours, WST-1, OD450 nm.
Setting [23] is: read-out: cell viability (survival rate), MCF7, drug 10 μM, 72 hours, WST-1, OD450 nm.
The mark [24] stands for this setting: read-out: cell viability (survival rate), HL-60, drug 10 μM, 72 hours, WST-1, OD450 nm.
The mark [25] stands for this setting: drug 10 μM, 72 hours, WST-1, OD450 nm, read-out: cell viability (survival rate), H1650.
Setting [26] is: drug 10 μM, 72 hours, WST-1, OD450 nm, read-out: cell viability (survival rate), A549.
Where [27] appears, read: drug 10 μM, 72 hours, WST-1, OD450 nm, read-out: cell viability (survival rate), AGS.
The mark [28] stands for this setting: drug 10 μM, 72 hours, WST-1, OD450 nm, read-out: cell viability (survival rate), MKN-45.
The mark [29] stands for this setting: drug 10 μM, 72 hours, WST-1, OD450 nm, read-out: cell viability (survival rate), HepG2.
The mark [30] stands for this setting: drug 10 μM, 72 hours, WST-1, OD450 nm, read-out: cell viability (survival rate), A375.
[31] abbreviates: drug 10 μM, 72 hours, WST-1, OD450 nm, read-out: cell viability (survival rate), HeLa.
[32] abbreviates: drug 10 μM, 72 hours, WST-1, OD450 nm, read-out: cell viability (survival rate), PC3.
Setting [33] is: drug 10 μM, 72 hours, WST-1, OD450 nm, read-out: cell viability (survival rate), TSGH.
Where [34] appears, read: drug 10 μM, 72 hours, WST-1, OD450 nm, read-out: cell viability (survival rate), MCF7.
Where [35] appears, read: drug 10 μM, 72 hours, WST-1, OD450 nm, read-out: cell viability (survival rate), HL-60.

Read-outs that look alike come from different tables or passages of the source.

For `Cc1ncc([N+](=O)[O-])n1CC(C)O` (stereo not drawn) [Secnidazole (Flagentyl), Secnidazole], in experiment [1], the “inhibition effect on different cancer cell lines” value is recorded as “significant inhibition effect”. The viability at 10 µM in experiment [2] (setting [14]) was found to be 46.8%; in [3] (setting [15]), 69.2%; in experiment [4] (setting [16]), 78%; in [5] (setting [17]), 77.2%; in experiment [6] (setting [18]), 99%; in [7] it was 85.4%. In addition, the viability at 10 µM amounted to 117% in experiment [8] (setting [19]); 124% in [9] (setting [20]); 81.6% in experiment [10] (setting [21]); 52.1% in experiment [11] (setting [22]); 81% in experiment [12] (setting [23]); 97.2% in experiment [13] (setting [24]).
For `COc1cc(NS(=O)(=O)c2ccc(N)cc2)nc(OC)n1` [Sulphadimethoxine], the “inhibition effect on different cancer cell lines” value in [1] was “significant inhibition effect”. For the same compound, the viability at 10 µM is 83.1% in experiment [2] (setting [14]); 100% in experiment [3] (setting [15]); 99.3% in experiment [4] (setting [16]); 72% in experiment [5] (setting [17]); 90.3% in experiment [6] (setting [18]); 70.8% in [7]. Further, the viability at 10 µM turned out to be 76% in experiment [8] (setting [19]); 68.8% in experiment [9] (setting [20]); 94% in [10] (setting [21]); 132% in experiment [11] (setting [22]); 94.3% in experiment [12] (setting [23]); 120% in experiment [13] (setting [24]).
Consider `O=C(O)c1cccnc1Nc1cccc(C(F)(F)F)c1` [Niflumic acid], for which the “inhibition effect on different cancer cell lines” value in [1] is “significant inhibition effect”. Further, the viability at 10 µM is 50.8% in experiment [2] (setting [25]); 99.2% in experiment [3] (setting [26]); 40.5% in [4] (setting [27]); 68.7% in experiment [5] (setting [28]); 87.4% in [6] (setting [29]); 82% in [7]. The viability at 10 µM in [8] (setting [30]) was found to be 50%; in experiment [9] (setting [31]) it was 51.9%; in [10] (setting [32]), 111%; in [11] (setting [33]) it was 66.8%; in [12] (setting [34]), 86.9%; in experiment [13] (setting [35]), 132%.
Consider `Cc1ccnc2c1NC(=O)c1cccnc1N2C1CC1` [Nevirapine (Viramune), Nevirapine], for which, in [1], the “inhibition effect on different cancer cell lines” value was “significant inhibition effect”. Moreover, the viability at 10 µM in experiment [2] (setting [25]) was 89.7%; in [3] (setting [26]) it was 45.7%; in experiment [4] (setting [27]) it was 115%; in experiment [5] (setting [28]), 68.3%; in [6] (setting [29]), 85.5%; in experiment [7] it was 85.7%. Besides, the viability at 10 µM came to 66.8% in experiment [8] (setting [30]); 58.9% in [9] (setting [31]); 84.1% in [10] (setting [32]); 103% in experiment [11] (setting [33]); 38.5% in [12] (setting [34]); 98.7% in experiment [13] (setting [35]).
`Cc1onc(-c2c(Cl)cccc2Cl)c1C(=O)N[C@@H]1C(=O)N2[C@@H]1SC(C)(C)[C@@H]2C(=O)O` [Dicloxacillin Sodium]: in experiment [1], the “inhibition effect on different cancer cell lines” value is “significant inhibition effect”. For the same compound, the viability at 10 µM was 68.4% in experiment [2] (setting [14]); 61.8% in [3] (setting [15]); 147% in [4] (setting [16]); 66.4% in experiment [5] (setting [17]); 102% in [6] (setting [18]); 92.4% in experiment [7]. Moreover, the viability at 10 µM in [8] (setting [19]) amounted to 79%; in [9] (setting [20]) it was 60.1%; in experiment [10] (setting [21]), 71.1%; in experiment [11] (setting [22]), 84.3%; in experiment [12] (setting [23]), 45.3%; in experiment [13] (setting [24]), 72.7%.
Take `Clc1ccccc1C(c1ccccc1)(c1ccccc1)n1ccnc1` [Clotrimazole (Canesten), Clotrimazole]: the “inhibition effect on different cancer cell lines” value in experiment [1] is recorded as “significant inhibition effect”. The viability at 10 µM in experiment [2] (setting [14]) came to 75.9%; in experiment [3] (setting [15]), 85.5%; in experiment [4] (setting [16]), 85.7%; in experiment [5] (setting [17]), 53.9%; in [6] (setting [18]) it was 102%; in experiment [7], 94.1%. The viability at 10 µM in experiment [8] (setting [19]) turned out to be 81.4%; in experiment [9] (setting [20]), 90%; in experiment [10] (setting [21]) it was 69.3%; in [11] (setting [22]), 50.8%; in experiment [12] (setting [23]) it was 56.8%; in [13] (setting [24]) it was 106%.
For the compound `N#CC(c1ccc(Cl)cc1)c1c(Cl)cc(-n2ncc(=O)[nH]c2=O)cc1Cl` (stereo not drawn) [Diclazuril], the “inhibition effect on different cancer cell lines” value in experiment [1] is given as “significant inhibition effect”. Further, the viability at 10 µM was determined as 104% in [2] (setting [25]); 42.7% in experiment [3] (setting [26]); 76.3% in experiment [4] (setting [27]); 97.9% in experiment [5] (setting [28]); 99.3% in experiment [6] (setting [29]); 78.4% in [7]. For the same compound, the viability at 10 µM was determined as 84.5% in experiment [8] (setting [30]); 76.1% in experiment [9] (setting [31]); 95.5% in [10] (setting [32]); 103% in experiment [11] (setting [33]); 40.4% in [12] (setting [34]); 70.2% in [13] (setting [35]).
Consider `C[C@@H](O)[C@H]1C(=O)N2C(C(=O)O)=C(S[C@@H]3CN[C@H](C(=O)N(C)C)C3)[C@H](C)[C@H]12` [Meropenem], for which the “inhibition effect on different cancer cell lines” value in experiment [1] is “significant inhibition effect”. Also, the viability at 10 µM is 55.4% in [2] (setting [25]); 46% in experiment [3] (setting [26]); 68.3% in experiment [4] (setting [27]); 84.9% in [5] (setting [28]); 99.3% in experiment [6] (setting [29]); 87.3% in experiment [7]. The viability at 10 µM in [8] (setting [30]) turned out to be 65.1%; in experiment [9] (setting [31]), 111%; in experiment [10] (setting [32]) it was 70.7%; in experiment [11] (setting [33]), 132%; in [12] (setting [34]), 68.1%; in [13] (setting [35]), 102%.
In the case of `CC(=O)S[C@@H]1CC2=CC(=O)CC[C@]2(C)[C@H]2CC[C@@]3(C)[C@@H](CC[C@@]34CCC(=O)O4)[C@H]12` [Spironolactone], the “inhibition effect on different cancer cell lines” value in experiment [1] is “significant inhibition effect”. The viability at 10 µM came out at 79.8% in [2] (setting [14]); 67.5% in experiment [3] (setting [15]); 96.6% in experiment [4] (setting [16]); 117% in [5] (setting [17]); 90.5% in experiment [6] (setting [18]); 67.2% in [7]. The viability at 10 µM in experiment [8] (setting [19]) was 61%; in [9] (setting [20]) it was 118%; in experiment [10] (setting [21]) it was 88.5%; in [11] (setting [22]) it was 90.1%; in experiment [12] (setting [23]) it was 87.7%; in experiment [13] (setting [24]), 57.2%.

In general, viability refers to a read-out of living cells in per cent, often relative to untreated cells.

Source of the values: US10105357B2, “Indication of antibiotic drugs for preparation of cancer inhibition pharmaceutical composition” (LAUNX BIOMEDICAL CO., LTD., priority 2014, dated 2018).
